What was measured:
[1] = system: AX5/antisense CPScc soybean line 46 (R2); assay: Hilum seed treatment of epicotyl-intensive GA-deficient soybean, seedling height (FIG. 42); assay type: in vivo, Glycine max; settings: 8 DAP
Protocol: These studies are performed on soybean plants engineered to express their GA-deficient phenotype throughout the life cycle via the use of the constitutive FMV promoter (line 719, FMV/antisense CPScc). In contrast to the constitutive FMV promoter, the peak activity of the AX5 promoter is developmentally restricted to the soybean seedling axis (epicotyl) three to five days after the start of imbibition, with limited expression beyond the seedling stage of development. Soybean lines transformed with the […] cassette therefore display an epicotyl-intensive dwarf phenotype. In these lines, inhibition of the hypocotyl is modest; most of the total height reduction in these plants is due to shortening of the epicotyl. Rescue of […] soybean plants therefore presents different technical challenges from those required for rescue of constitutively GA-deficient transgenic dwarf soybean lines containing the […] construct. […] Seed from both lines is produced from greenhouse-grown plants. […] If multiple applications are made to seeds, the previous application is allowed to dry before a subsequent application is made. […] (29° C.) day and 75° F. night (24° C.). Pots are watered as necessary by overhead hand watering. Hypocotyl and epicotyl measurements are made for each plant at various stages of plant growth. […] The results are shown in FIG. 42, where the error bar represents +/-two times the standard error of the mean (n=12-15). […] The upper dashed horizontal line represents the total height of untreated wild-type […] soybeans. Measurements are made 8 days after planting.

[2] = system: constitutively GA-deficient transgenic dwarf soybean line 719; assay: Field trial of seed coating application rates, GA-deficient soybean; assay type: in vivo, Glycine max; settings: for 719 Height, cm, Heavy soil / 719 Height, cm, Light soil / No. 719 Emerged, Heavy soil / No. 719 Emerged, Light soil / No. 719 Not Rescued, Heavy soil / No. 719 Not Rescued, Light soil: seed coating
Protocol: GA3, GA3-3-acetate, GA5, GA9, and GA12 are evaluated in further field trials. […] The objectives of these tests are: 1) to determine if seed coatings, as compared to imbibition, of GA compounds facilitate rescue of constitutively GA-deficient transgenic dwarf soybeans (transgenic lines 719−2 plus 719+17) without causing elongation of wild-type soybeans (line A4922), and 2) to determine the seed treatment rate ranges for each of the selected GA compounds that would provide rescue of constitutively GA-deficient transgenic dwarf soybeans (transgenic lines 719−2 plus 719+17) without causing elongation of wild-type soybeans (line A4922).
Seeds are treated with GA3, GA5, GA9, GA12, and GA3-3-acetate at rates of 0, 0.1, 1, 10, and 100 μg/seed. These GA compounds are applied to the seeds using a Hege 11 seed treater (Hans-Ulrich Hege GmbH & Co., Waldenburg, Germany); 100% acetone is used as the carrier solvent. The amount of liquid introduced into the seed treater is six fluid ounces/100 lbs seed rate. In addition, GA12 is tested at 50 μg/seed. The untreated control (UTC) consisted of dry, untreated seeds. Seeds of constitutively GA-deficient transgenic dwarf soybean line 719 and wild-type A4922 are sown in both light and heavy soil. The planting depth is 0.5 to 1 inch (1.27 to 2.54 cm); watering is via drip irrigation. The experiment is carried out in three repetitions, using 25 seeds/plot (one five foot (152.4 cm) long row) for line 719, and 75 seeds/plot (two eight foot (243.8 cm) rows) for line A4922. Observations included total emergence, number of dwarfs not rescued, uniformity in plant height, average plant height, visual notes, and digital photos.
In all the experiments reported in Tables 17-24, treatments are replicated three times in a randomized block design. Data are analyzed using LSD (least significant difference) 0.05 probability using the PRM 5.0 Statistical Analysis Program (SAS Institute, North Carolina).

[3] = system: AX5/antisense CPScc soybean line 234 (R3); assay: Hilum seed treatment of epicotyl-intensive GA-deficient soybean, height (FIG. 43); assay type: in vivo, Glycine max; settings: 10 DAP; for restoration of height of line 234 soybeans: hypocotyl and epicotyl elongation, hypocotyl to epicotyl ratio not maintained
Protocol: The purpose of this study is to evaluate the ability of four GA compounds, i.e., GA9, GA5, GA3-3-acetate, and GA12, to restore normal growth in AX5/antisense CPScc soybean lines when applied as a seed treatment.
Line 46 plants are R2; Line 234 plants are R3.
The GA compounds are dissolved in ethanol and applied to the hilum of dry seeds as not more than 10 μl droplets with a syringe. If multiple applications are made to seeds, the previous application is allowed to dry before a subsequent application is made.
Seeds are sown 1 inch deep in commercial potting soil (Metromix 200) in 4-inch plastic pots and placed in a greenhouse set for 12 hours artificial light and a temperature regime of 85° F. (29° C.) day and 75° F. night (24° C.). Pots are watered as necessary by overhead hand watering. Hypocotyl and epicotyl measurements are made for each plant at various stages of plant growth.
The lower dashed horizontal line represents the total height of untreated AX5 line 234 soybeans. The upper dashed horizontal line represents the total height of untreated wild-type A4922 soybeans. Measurements are made 10 days after planting.

[4] = Particulate material present in solutions after mixing; assay type: physicochemical
Protocol: Each of the compounds noted above is weighed to the nearest 0.1 mg in a pre-tarred 1.5-ml polypropylene vial with a screw-top lid. Absolute ethanol is added to the weighed powder to prepare a 25 mg/ml solution. Solutions are thoroughly mixed using a vortex mixer. A stainless steel spatula is used to crush any particulate material remaining after extensive mixing. Vials are left overnight at room temperature, and then remixed to form the concentrated ethanol stock solutions. The presence of undissolved material is noted throughout this procedure.

[5] = system: wild-type soybean line A3237; assay: Experiment II second greenhouse test, seed imbibition, wild-type soybean; assay type: in vivo, Glycine max; settings: seeds imbibed 6 hours
Protocol: (The compounds are tested in Experiment I at only one concentration, i.e., 0.25 mg/ml). Test tubes contained […] of ethanol solution per tube. Final volumes are made up to 30 ml with deionized water. After shaking, the treatment solutions (15 ml each) are transferred to each of two 50 ml test tubes. […] Twenty seeds are used in each treatment. Dry seed, ethanol/water-imbibed seed (1% ethanol in water, v/v), and water-imbibed seeds are included as controls. Seeds are imbibed for 6 hours in the test solutions, then planted in bread pans containing Metromix 350 (The Scotts Company, Marysville, Ohio), and covered with 0.5″ Metro-mix. Covered pans are transferred to the greenhouse and subirrigated. Illumination is at a light intensity of 300-400 μmolm^−2s^−1 photosynthetic photon flux; 16 hours light/8 hours dark. Subsequent waterings are also through sub-irrigation until the test is terminated three weeks later. Observations included the number of dwarf, intermediate, and tall plants; plant height; uniformity of rescue; and any visual effects. Digital photographs are also taken.

SMILES	effect on line 46 total height [1]	719 Height, cm, Heavy soil ([2]; 10 μg compound per seed)	719 Height, cm, Light soil ([2]; 10 μg compound per seed)	No. 719 Emerged, Heavy soil ([2]; 10 μg compound per seed)	No. 719 Emerged, Light soil ([2]; 10 μg compound per seed)	No. 719 Not Rescued, Heavy soil ([2]; 10 μg compound per seed)	No. 719 Not Rescued, Light soil ([2]; 10 μg compound per seed)	719 Height, cm, Heavy soil ([2]; 100 μg compound per seed) [ab cm]	719 Height, cm, Light soil ([2]; 100 μg compound per seed)	No. 719 Emerged, Heavy soil ([2]; 100 μg compound per seed)	No. 719 Emerged, Light soil ([2]; 100 μg compound per seed)	No. 719 Not Rescued, Heavy soil ([2]; 100 μg compound per seed) [f]	No. 719 Not Rescued, Light soil ([2]; 100 μg compound per seed)	restoration of height of line 234 soybeans [3]	further results
C=C1C[C@]23C[C@H]1CC[C@H]2[C@@]12CCC[C@@](C)(C(=O)O1)[C@H]2[C@@H]3C(=O)O [GA9]	rescued AX5/asCPScc soybean line 46 total height, with some hypocotyl over-elongation	4.0 d-i cm	5.0 efg cm	16.3 b-e	21.7 ab	0.7 ef	0.3	8.3	10.3 cd cm	20.3 a-d	19.0 a-e	0	0	restore normal height to line 234 soybeans	activity relative to GA3, GA3-3-acetate and GA5 [1]: approximately ten times less active; appearance of line 719 seedlings ([2]; 0.1 and 1 μg per seed): appeared unusually abnormal; activity relative to GA3, GA3-3-acetate and GA5 [3]: approximately 10 times less active; Particulate material present, 100X Diln w/water ([4]; 0.25 mg/ml compound in water): YES; solubility in water during imbibition ([4]; 0.25 mg/ml treatment solutions): less soluble in water during imbibition; Significant Visual Observations on Line A3237 ([5]; 0.125 mg/ml): Normal height
C=C1C[C@]23C[C@@]1(O)CC[C@H]2[C@@]12C=C[C@H](OC(C)=O)[C@@](C)(C(=O)O1)[C@H]2[C@@H]3C(=O)O [GA3-3-acetate]	rescued AX5/asCPScc soybean line 46 total height, with some hypocotyl over-elongation	9.0 ab cm	9.3 cm·days	17.7 a-e	20.3 a-d	0 f	0	8.7	12.0 b cm	16.7 b-e	17.7 b-f	0	0	restore normal height to line 234 soybeans	719 Height, cm, Heavy soil ([2]; 0.1 μg compound per seed): 3.3 e-i cm; 719 Height, cm, Light soil ([2]; 0.1 μg compound per seed): 5.3 efg cm; No. 719 Emerged, Heavy soil ([2]; 0.1 μg compound per seed): 18.7 a-d; No. 719 Emerged, Light soil ([2]; 0.1 μg compound per seed): 21.0 ab; No. 719 Not Rescued, Heavy soil ([2]; 0.1 μg compound per seed): 0.3 ef; No. 719 Not Rescued, Light soil ([2]; 0.1 μg compound per seed): 0.7; 719 Height, cm, Heavy soil ([2]; 1 μg compound per seed): 6.0 cd cm; 719 Height, cm, Light soil ([2]; 1 μg compound per seed): 6.3 e cm; No. 719 Emerged, Heavy soil ([2]; 1 μg compound per seed): 21.3 abc; No. 719 Emerged, Light soil ([2]; 1 μg compound per seed): 21.7 ab; No. 719 Not Rescued, Heavy soil ([2]; 1 μg compound per seed): 0 f; No. 719 Not Rescued, Light soil ([2]; 1 μg compound per seed): 0.3; preferred seed coating rate in this experiment ([2]; judged on lines 719 and A4922, light and heavy soil): about 1 μg per seed; response of line 234 height ([3]; seed treatment rates between 0.1 and 1 μg/seed): generally similar response; Significant Visual Observations on Line A3237 ([5]; 0.0025 mg/ml): Normal height
